“Also recorded” adds a separate entry of the source.
Assays:
[1] = after releasing from stent; through specific binding to binding proteins; cited from earlier work
[2] = HPLC analysis of paclitaxel in the formed tube/stent (stability to extrusion); format: physicochemical; conditions: extraction in 50% ethanol and 50% methanol overnight at room temperature; FIG. 2
Method: The 10 μl extracting solutions were further analyzed by HPLC (HP16 series 1090, Hewlett-Packard Co. Palo Alto, Calif.). The samples were analyzed on a C18-reverse phase column (HP: 4.6×100 mm RP18) using a mobile phase consisting of 0.005% TFA buffer (0.05 ml Trifluoroacetic acid in 1000 ml acetonitrile) delivered at a flow rate of 1.0 mL/min.

| Compound | retention in blood vessel wall [1] | stability of paclitaxel during extrusion (HPLC peaks, pre-extrusion vs stent samples) [2] |
| --- | --- | --- |
| CO[C@H]1C[C@@H]2CC[C@@H](C)[C@@](O)(O2)C(=O)C(=O)N2CCCC[C@H]2C(=O)O[C@H]([C@H](C)C[C@@H]2CC[C@@H](O)[C@H](OC)C2)CC(=O)[C@H](C)/C=C(\C)[C@@H](O)[C@@H](OC)C(=O)[C@H](C)C[C@H](C)/C=C/C=C/C=C/1C [sirolimus] | up to three days |  |
| CC(=O)O[C@H]1C(=O)[C@@]2(C)[C@H]([C@H](OC(=O)c3ccccc3)[C@]3(O)C[C@H](OC(=O)[C@H](O)[C@@H](NC(=O)c4ccccc4)c4ccccc4)C(C)=C1C3(C)C)[C@]1(OC(C)=O)CO[C@@H]1C[C@@H]2O [paclitaxel] |  | not decomposed during extrusion; also recorded: survived the elevated extrusion temperature and are stable inside the stent strut |

Reference: US20130084322A1, “DRUG-IMPREGNATED BIODEGRADABLE STENT AND METHODS OF MAKING THE SAME” (Tim Wu, priority 2010, published 2013)
